Patent US12239654B2, “Compounds and methods for treating neurological and cardiovascular conditions” (Astrocyte Pharmaceuticals, Inc., priority 2016, dated 2025)
Where two headings read alike, the source gives them in different places. Marks after values point to notes of the source that are not given here.

Columns and labels:
mice subjected to stroke = assay: Photothrombosis-induced stroke in mice, TTC-stained brain infarction size; format: in vivo, C57Bl/6 mice; conditions: 24 hours
Description: Photothrombosis-induced Stroke: Photothrombosis was performed as described in Zheng et al 2010 (PloS One 5 (12): e14401). In brief, Rose Bengal is a fluorescent dye that when injected into the vasculature and excited, generates singlet oxygen that damages the endothelial wall and induces a local thrombosis (clot). Using this technique, mice were given a 0.1 mL tail-vein injection of sterilized Rose Bengal (RB, Sigma, U.S.A.) in artificial cerebral spinal fluid (aCSF). The RB concentration was 20 mg/mL. A cortical region was centered in the imaging field and illuminated with a green laser (543 nm, 5 mW) using a 0.8-NA 40× water-immersion objective (Nikon, Tokyo). The clot formation was monitored in real time until the targeted vessel or downstream capillaries were firmly occluded. Stable clots were subsequently identified by a non-fluorescent vessel segmentation ending with highly fluorescent regions. […] Treatments, MRS4322 (0.16 mg/kg; 0.5 μmol/kg) or MRS2365 (0.24 mg/kg; 0.5 μmol/kg) were introduced via intraperitoneal injections (i.p.). For experiments with A3 receptor antagonist MRS1523, mice were administered intraperitoneal injections (2 mg/kg) at the 0 and 2 hour timepoints to ensure receptor antagonism throughout the course of the study.
Animals and Photothrombosis-induced Stroke: Stroke was performed as described in Zheng et al 2010 (PloS One 5 (12): e14401). Female C57Bl/6 mice (4-6 months) were used in this study. From the methods of this manuscript: Mice were anesthetized at 3% isoflurane with 100% oxygen and subsequently maintained at 1% isoflurane through a nosecone. Depth of anesthesia was monitored and regulated according to vital signs, pinch withdrawal and eye blinks. Body temperature was maintained at 37° C. by a feedback-controlled heating pad (Gaymar T/Pump). Vital signs including oxygen saturation, respiratory rate, and heart rate were continuously monitored by using the MouseOx system (STARR Life Sciences). The hair on each mouse's head was trimmed and a small incision was made in the scalp to expose the skull. A custom-made stainless steel plate was glued to the skull with VetBond Tissue Adhesive (3M, St Paul, MN). A cranial thinned-skull imaging window was created over the right primary somatosensory cortex (˜1.5 mm posterior to Bregma and 2 mm lateral from midline) depending on the experiment. In brief, a large region of the skull was first thinned with the electric drill and then further thinned with a surgical blade. The final thickness of the thinned skull was approximately 50 μm. After the cranial imaging window was created, mice were transferred to microscope stage and used for photothrombosis or imaging experiments. For the repeat imaging experiments, the plate was carefully detached from the skull and the scalp was sutured (Ethicon 6-0 sild suture). After each experiment, the mice were either returned to cages until the next timepoint or sacrificed. All procedures were approved by the Institutional Animal Care and Use Committee (IACUC) at University of Texas Health Science Center at San Antonio. Thirty minutes following stroke or sham (uninjured), mice were treated with either vehicle (saline) or drugs (MRS4322, MRS2365, MRS5698 or Cl-IBMECA).
Post photothrombotic infarction evaluation. The size of cerebral infarcts was evaluated using 2,3,5-Triphenyltetrazolium chloride (TTC) staining as described in Zheng et al 2010 (PloS One 5 (12): e14401). In brief, RB-induced lesions in brain slices were stained with TTC. TTC is a colorless dye that stains healthy brain tissue red when reduced by the mitochondrial enzyme succinyl dehydrogenase (Bederson J B et al., 1986). The absence of staining in necrotic tissue is then used to define the area of a brain infarction. Mice were sacrificed by cervical dislocation, their brains removed and then placed in ice cold HBSS for 3 minutes. The brain was subsequently transferred to a brain mold (KOPF), sliced into 1 mm sections and immersed in 2% TTC (5 min) at 37° C. […]

[1] = Plasma binding determination by plasma ultrafiltration, mouse; format: in vitro ADME; conditions: mouse plasma, 1 μM
Description: (§1) Animals and Tissue Preparation: Plasma from male CD-1 mice was obtained from BioreclamationIVT (Westbury, NY) and stored at −80° C. until use. Male CD-1 mouse brains were obtained from BioreclamationIVT (Westbury, NY).
Plasma ultrafiltrate blank samples were prepared by thawing frozen plasma and then pre-warming plasma in a humidified 5% CO2 chamber at 37° C. for 60 minutes. Aliquots of 800 μL were transferred to Centrifree Centrifugal Filters (Ultracel regenerated cellulose (NMWL 30,000 amu) Lot R5JA31736) and centrifuged at 2900 RPM at 37° C. for 10 minutes; plasma water filtrates were collected and used in preparation of standards, blanks and QC standards.
Plasma samples were pre-warmed for 60 minutes in a humidified, 5% CO2 incubator maintained at 37° C. […] Spiked plasma samples were incubated on a rotary mixer in a humidified 5% CO2 chamber at 37° C. for a minimum of 60 minutes. After 60 minutes, three 800 μL aliquots of each sample were added to Centrifree centrifugal filters. The filters were subjected to centrifugation at 2900 rpm for 10 minutes at 37° C. Three 100 μL aliquots of residual plasma were collected along with ultrafiltrate for bioanalysis.
(§2) Plasma and brain concentrations of MRS4322 and MRS5698 in spiked plasma, brain homogenates and associated ultrafiltrates were determined by LC-MS/MS utilizing tolbutamide as an internal standard. […] The following tables outline the LC and MS/MS conditions employed (Tables 7 and 8).
(§3) For each tissue matrix, standard curves were created and LLOQ/ULOQ concentrations determined. The calibration range for the MRS4322 and MRS5698 plasma concentration standard curves was 400-1200 nM. The calibration range for MRS4322 and MRS5698 plasma ultrafiltrate standard curves was 100-1200 nM. The calibration range for MRS4322 brain homogenate and brain homogenate ultrafiltrate standard curves were 400-1200 nM and 100-1200 nM, respectively. The calibration range for MRS5698 brain homogenate and brain homogenate ultrafiltrate standard curves were 400-1200 nM and 1-500 nM, respectively.

[2] = Brain binding determination by brain homogenate ultrafiltration, mouse; format: in vitro ADME; conditions: for fraction unbound at 60 min, 1 μM: male, CD-1, mouse, brain homogenate, pH 7.4, mouse brain homogenate
Description: as §1
Brains were weighed and homogenized with 1:9 phosphate-buffered saline, pH 7.4 using an Omni tissue homogenizer. Brains from four mice were homogenized, pooled and mixed to form one sample.
Pooled homogenized brains were pre-warmed for 60 minutes in a humidified, 5% CO2 incubator maintained at 37° C. […] Spiked pooled brain homogenates were placed on a Nutator mixer in a humidified, 5% CO2 incubator at 37° C. for 60 minutes. After 60 minutes, three 800 μL aliquots of each sample were added to Centrifree centrifugal filters. The filters were subjected to centrifugation at 2900 rpm for 10 minutes at 37° C. Aliquots of residual brain homogenate and ultrafiltrate were collected for bioanalysis.
as §2, §3

| Compound | size of the brain infarction (TTC staining) (mice subjected to stroke; photothrombotic stroke mice, 100 ul of 100 uM ip within 30 minutes of clot formation, vs vehicle) | concentrations in the plasma ultrafiltrate [1] | fraction unbound at 60 min, 1 μM ([2]; 37° C., ultrafiltration, read-out: % Bound Mean (converted)) | fraction unbound at 60 min, 1 μM ([2]; 37° C., ultrafiltration, read-out: Fraction Unbound Mean) | concentrations in the brain homogenate ultrafiltrate ([2]; mouse brain homogenate, 1 μM) | % Bound Mean ([2]; mouse brain homogenate, 1 μM, 37° C., ultrafiltration) | size of brain infarctions in mice pretreated with A3 receptor antagonist MRS1523 (mice subjected to stroke; MRS1523 2 mg/kg ip at 0 and 2 hour, treatment within 30 minutes of clot formation) |
| --- | --- | --- | --- | --- | --- | --- | --- |
| Nc1nc(Cl)nc2c1ncn2[C@H]1[C@H](O)[C@H](O)[C@]2(CO)C[C@H]12 [MRS1873] | significantly reduced |  |  |  |  |  |  |
| CNC(=O)[C@@]12C[C@@H]1[C@@H](n1cnc3c(NCc4cccc(Cl)c4)nc(C#Cc4ccc(F)c(F)c4)nc31)[C@H](O)[C@@H]2O [MRS5698] |  | not detected | 0.0001 | < 0.000122 | not detected | >99.99* % | not reduced |
